{
  "source": "patent US20090075925A1",
  "about": "“Methods and Compositions Related to APOBEC-1 Expression” (priority 2006, published 2009)",
  "key": {"apoB mRNA editing": {"tested_on": "apoB mRNA editing", "conditions": "for apoB mRNA editing, Mean ± SEM: 6 hours", "experimental": "Protein phosphatase inhibitor studies. […] The compounds' effects on apoB mRNA editing were evaluated by RT-PCR and poisoned-primer extension analysis (Sowden et al. Rna 2:274-88 (1996)). The effect of 470 nM cantharidin on ACF subcellular distribution was investigated by treating primary hepatocyte cultures for 6 hours followed by nuclear and cytoplasmic extract preparation.\nIt was reasoned that if phosphorylation of ACF regulated editing activity, treatment of rat primary hepatocytes with phosphatase inhibitors might stimulate apoB mRNA editing activity. […] The experiments (n=4-6) were done over a number of months and therefore represent primary hepatocytes from several rats.\nEditing activity was quantified from primary hepatocytes incubated with 10-100-times the EC50 of the various […] (Calbiochem)."}, "ACF [1]": {"tested_on": "ACF", "assay": "ACF phosphorylation in 32P-labeled rat primary hepatocytes (ACF immunoprecipitation, autoradiography)", "format": "cell-based", "conditions": "10 nM insulin, 4 hours", "experimental": "In vivo phosphorylation of ACF. In vivo ^32P labeling was performed by intraperitoneal injection of rats with 12.5 mCi of orthophosphoric acid (10 mCi/ml ^32PO4; NEN, Boston, Mass.) buffered with 50 mM HEPES, pH 7.0 and 150 mM NaCl. After 4 hours, rats were sacrificed and hepatic cytoplasmic and nuclear extracts prepared. Primary hepatocyte cultures in 60 mm dishes were incubated in phosphate-free Minimum Essential Eagle Media (Sigma) containing 0.1 nM porcine insulin for 6 hours and subsequently in fresh media containing 10 nM insulin (equivalent to that seen in post-prandial serum) or 0.45% to 0.9% ethanol (AAPER Alcohol and Chemical Co., Shelbyville, Ky.) (Van Mater et al. (1998), Yang et al. (2000)) plus 2.0 mCi orthophosphoric acid. Cultures were labeled for 4 hours prior to extract preparation.\nTo evaluate the effect of phosphatase inhibition on ACF phosphorylation, cultures were pre-incubated for 2 hours with 470 nM cantharadin in phosphate-free Waymouth's media and subsequently supplemented with 0.5 mCi ^32pO4 and incubated for an additional 4 hours. Cultures were harvested and subcellular extracts prepared.\nImmunological techniques. […] For immunoprecipitation analyses all radiolabeled extracts were adjusted to 5 mM MgCl2 and digested with 100 units of DNase I (Promega), RNase T1 (Roche, Ind.), and RNase A (Sigma) for 1 hour on ice to remove radiolabeled nucleic acid. Where applicable, extracts were incubated overnight with ACF CT antibody at 4° C. and subsequently reacted with Protein A-agarose (Oncogene Research Products, Boston, Mass.) pre-washed with 1×TBS/10 mM NaF. The immuno-absorbed material was washed 3 times with 1×TBS/10 mM NaF, 3 times with 1×TBS/1 M NaCl (Yang et al. (1997)) and lastly 3 times with 1×TBS. Immuno-absorbed material to be treated with alkaline phosphatase was washed with 50 mM Tris, pH 8.4, 1 mM MgCl2, 0.1 mM ZnCl2, 25% glycerol and then incubated with 5 U CIAP for 1 hour at 30° C. and then washed 6 times with 1×TBS. ACF-antibody complexes were eluted with 3 M sodium thiocyanate, acetone precipitated and analyzed by 10.5% SDS-PAGE followed by autoradiography and/or western blotting with ACF NT antibody. For ACF immunoprecipitation from gradient fractions an equal volume of pooled gradient fractions from sedimentation zones of interest were reacted with sub-saturating amounts of ACF CT antibody to ensure that the recovery of phospho-ACF was not simply a reflection of ACF abundance in each zone.\nTo evaluate this, cytoplasmic and nuclear extracts from radiolabeled primary hepatocyte cultures were sedimented through 10%-50% glycerol gradients. […] The ACF immunoprecipitates were resolved by SDS-PAGE, transferred to nitrocellulose, autoradiographed and subjected to phosphorimager scanning to detect and quantify radiolabeled proteins prior to immunoblotting with the ACF NT antibody."}, "ACF [2]": {"tested_on": "ACF", "assay": "hepatic ACF nuclear retention in lean and ob/ob mice after insulin challenge", "format": "in vivo, mouse", "conditions": "4 h following 1.5 IU insulin/kg BW", "experimental": "The mice are insulin-resistant as evident in elevated blood glucose (180-220 mg/dl after fasting) and lack a significant response to challenge when injected with 1.5 IU of insulin/kg BW. It has been shown that apobec-1 gene expression and apoB mRNA editing is markedly stimulated by insulin (Sowden, M. P. et al. (2002); Funahashi, T. F. et al (1995); Phung, T. L. et al. Metabolism 45, 1056-1058 (1996); von Wronski, M. A. et al. Metabolism 47, 869-73 (1998)). As a further indicator of the insulin-resistant state of these animals, it is apparent that hepatic apoB mRNA editing is not stimulated compared to cogenic lean mice (FIG. 40). The results from three fed animals as lean, ob/ob and 4 h Insulin-treated ob/ob mice are shown. Editing was evaluated using the established poisoned-primer extension assay for quantifying edited apoB mRNA where % editing is calculated from PhosphorImager scans as the counts in the edited band, divided by the sum of the counts in the edited plus unedited bands X 100. The nuclear-cytoplasmic distribution of ACF was next assessed in lean and ob/ob mouse liver without or with insulin challenge (4 h following 1.5 IU insulin/kg BW). […] The fold-nuclear retention of total cellular ACF was calculated from these values and is provided at the bottom of the image."}, "AC": {"tested_on": "AC", "conditions": "activation of cAMP dependent kinases, cited from earlier work"}},
  "note": "Several values for one entry are separate records, joined by “and”; a condition that tells them apart may be missing. Equal entries are not always repeated. Where two headings read alike, the source gives them in different places.",
  "data": [
    {"compound": "COc1ccc(S(=O)(=O)N(CCO)c2ccccc2CN(C)C/C=C/c2ccc(Cl)cc2)cc1", "note": "[KN93]", "values": [
      {"measurement": "effect on editing in hepatocytes", "setting": "apoB mRNA editing", "value": "stimulated"}
    ]},
    {"compound": "C=C1[C@@H](O)[C@@H]2O[C@]3(CC[C@H](/C=C/[C@@H](C)[C@@H]4CC(C)=C[C@@]5(O[C@H](C[C@@](C)(O)C(=O)O)CC[C@H]5O)O4)O3)CC[C@H]2O[C@@H]1[C@@H](O)C[C@H](C)[C@H]1O[C@@]2(CCCCO2)CC[C@H]1C", "note": "[Okadaic acid]", "values": [
      {"measurement": "apoB mRNA editing, Mean ± SEM", "setting": "apoB mRNA editing; 1 nM", "value": "72 ± 4", "unit": "%"},
      {"measurement": "apoB mRNA editing, Mean ± SEM", "setting": "apoB mRNA editing; 10 nM", "value": "74 ± 4", "unit": "%"},
      {"measurement": "apoB mRNA editing, Mean ± SEM", "setting": "apoB mRNA editing; 100 nM", "value": "91 ± 2", "unit": "%"},
      {"measurement": "apoB mRNA editing (increased from 66%)", "setting": "apoB mRNA editing; about 10 times the IC50 for PP1 (cantharidin 4.7 μM)", "value": "greater than 90%"},
      {"measurement": "effect on apoB mRNA editing", "setting": "apoB mRNA editing; concentration not given", "value": "stimulated"}
    ]},
    {"compound": "insulin: porcine insulin (Sigma)", "values": [
      {"measurement": "editing in metabolic state of rat hepatocytes (model, basal ~65%)", "setting": "apoB mRNA editing", "value": "~80", "unit": "%"},
      {"measurement": "increase of phosphorylated ACF in nuclear 27S editosomes", "setting": "ACF [1]", "value": "2.5 fold and 2 fold"},
      {"measurement": "hepatic ACF nuclear retention, fold change", "setting": "ACF [2]; lean mice", "value": 4, "unit": "fold"},
      {"measurement": "hepatic ACF nuclear retention, fold change", "setting": "ACF [2]; ob/ob mice", "value": 0.9, "unit": "fold"}
    ]},
    {"compound": "COc1cccc(-c2cc(=O)c3ccccc3o2)c1N", "note": "[PD98059]", "values": [
      {"measurement": "effect on editing in hepatocytes", "setting": "apoB mRNA editing", "value": "did not affect editing"}
    ]},
    {"compound": "O=C(O)[C@@H]1[C@H](C(=O)O)[C@H]2CC[C@@H]1O2", "note": "[Endothall]", "values": [
      {"measurement": "apoB mRNA editing, Mean ± SEM", "setting": "apoB mRNA editing; 100 nM", "value": "66 ± 2", "unit": "%"},
      {"measurement": "apoB mRNA editing, Mean ± SEM", "setting": "apoB mRNA editing; 500 nM", "value": "65 ± 2", "unit": "%"},
      {"measurement": "apoB mRNA editing, Mean ± SEM", "setting": "apoB mRNA editing; 5 μM", "value": "64 ± 3", "unit": "%"},
      {"measurement": "apoB mRNA editing, Mean ± SEM", "setting": "apoB mRNA editing; 50 μM", "value": "83 ± 2", "unit": "%"},
      {"measurement": "effect on apoB mRNA editing", "setting": "apoB mRNA editing; 10-times the IC50 for PP1", "value": "stimulated editing to statistically significant levels"}
    ]},
    {"compound": "Glucagon", "values": [
      {"measurement": "apoB mRNA editing, Mean", "setting": "apoB mRNA editing; 1 nM", "value": 62.2, "unit": "%"},
      {"measurement": "apoB mRNA editing, Mean", "setting": "apoB mRNA editing; 10 nM", "value": 59.5, "unit": "%"},
      {"measurement": "apoB mRNA editing, Mean", "setting": "apoB mRNA editing; 100 nM", "value": 58.3, "unit": "%"},
      {"measurement": "EC50", "setting": "AC", "value": "0.1 to 100", "unit": "nM"},
      {"measurement": "EC50", "setting": "AC; listed as glucagon", "value": 50, "unit": "nM"}
    ]},
    {"compound": "O=S(=O)(NCCNC/C=C/c1ccc(Br)cc1)c1cccc2cnccc12", "note": "[H89]", "values": [
      {"measurement": "effect on editing in hepatocytes", "setting": "apoB mRNA editing", "value": "stimulated"}
    ]}
  ]
}
